{
  "source": "patent US20160213635A1",
  "about": "“COMPOSITIONS USEFUL IN THE PREVENTION OR TREATMENT OF SKIN CANCER” (GIULIANI S.P.A., priority 2013, published 2016)",
  "key": {"NHKs cells [1]": {"test_system": "NHKs cells", "experiment": "Western Blot assessment of ability to repair DNA damage after pre-treatment with G01 and subsequent UV irradiation", "type": "cell-based, human", "details": "after UVB irradiation 25 mJ/cm^2, 6 h", "experimental": "The NHKs cells were plated in the specific culture medium and maintained in culture for 24±2 h to allow adhesion to the plate. Then, the keratinocytes were treated for 24±2 h with the compound of the invention G01, at concentrations of 60 μM and 90 μM. Subsequently, the plates identified as +UVA, +G01/UVA, +UVB, and +G01/UVB were respectively exposed, in the irradiation medium, to doses of UVA of 10 J/cm^2 and UVB of 25 mJ/cm^2, while the control plates (Ctr) and those treated only with G01 were maintained in the dark and at room temperature for a period of time equal to the irradiation time. The irradiation medium was then replaced with the culture medium. Based on the preliminary results obtained on a broader time range, a post-treatment time of 6 h was selected, after which the plates were processed for Western Blot protein determination.\nFor each condition tested (treatment with G01 and/or UVA/UVB irradiation), the protein expression of the phosphorylated histone γH2AX, p53 and GADD45a (growth arrest and DNA damage response gene), known markers of DNA damage induced by UV radiation, was compared with the expression in the control cells (Ctr)."}, "[2]": {"test_system": "primary cultures of human keratinocytes, NHKs", "experiment": "Cell viability (incorporation of NR) after UV irradiation and subsequent treatment with G01", "type": "cell-based", "details": "post-treatment; UVA 10 J/cm^2, UVB 25 mJ/cm^2; particularly 48 h after irradiation; highest concentration tested 90 μM", "experimental": "The cells were plated in the specific culture medium and maintained in culture for 24±2 h to allow adhesion to the plate. The cells in the plates identified as +UVA and +UVB were respectively exposed, in the irradiation medium, to doses of UVA of 10 J/cm^2 and UVB of 25 mJ/cm^2, while the control plate (Ctr) was maintained in the dark and at room temperature for a period of time equal to the irradiation time. The irradiation medium was then replaced with the culture medium, containing the compound G01 in concentrations selected based on the cell viability results obtained after treatment with the same compound (see above). The cell viability was measured (incorporation of NR) at a time of 24±2 h and 48±2 h after the irradiation, in the absence and the presence of UVA/UVB irradiation and/or treatment with the compound of the invention G01. The cell viability values for each condition tested were compared with the value obtained from the control and plotted on a graph to highlight any differences between the various experimental conditions."}, "NHKs cells [3]": {"test_system": "NHKs cells", "experiment": "Western Blot assessment (non-cleaved caspase 3) of apoptosis induced by UV irradiation and subsequent treatment with G01", "type": "cell-based, human", "details": "post-treatment 90 μM; UVA 25 J/cm^2, UVB 80 mJ/cm^2; 24 h", "experimental": "The NHKs cells were plated in the specific culture medium and maintained in culture for 24±2 h to allow adhesion to the plate. Subsequently, the plates identified as +UVA, +G01/UVA, +UVB, and +G01/UVB were respectively exposed, in the irradiation medium, to doses of UVA of 25 J/cm^2 and UVB of 80 mJ/cm^2, while the control plates (Ctr) and those treated only with the compound under examination (G01) were maintained in the dark and at room temperature for a period of time equal to the irradiation time. The irradiation medium was then replaced with the culture medium containing the compound G01, in a concentration of 90 μM. Based on the preliminary results obtained on a broader time range, a post-treatment time of 24 h was selected, after which the plates were processed for Western Blot protein determination. The protein expression of non-cleaved caspase 3 in each condition tested (treatment with the compound G01 under examination and/or UVA/UVB irradiation) was compared with the expression in the control cells."}, "[4]": {"test_system": "primary cultures of human keratinocytes, NHKs", "experiment": "Cell viability (incorporation of NR) after pre-treatment with G01 and subsequent UV irradiation", "type": "cell-based", "details": "pre-treatment 24±2 h; UVA 10 J/cm^2, UVB 25 mJ/cm^2; particularly 48 h after irradiation; particularly significant at 90 μM", "experimental": "The cells were plated in the specific culture medium and maintained in culture for 24±2 h to allow adhesion to the plate. The cells were treated for 24±2 h with the concentrations of the compound G01 under evaluation, selected based on the previous results. Subsequently, the cells in the plates identified as +UVA and +UVB were respectively exposed, in the irradiation medium, to doses of UVA of 10 J/cm^2 and UVB of 25 mJ/cm^2, while the control plate was maintained in the dark and at room temperature for a period of time equal to the irradiation time. The irradiation medium was then replaced with the culture medium. The cell viability was measured (incorporation of NR) 24±2 h and 48±2 h after the irradiation, following examination of the morphology of the cells under a microscope, in the absence and the presence of treatment with G01 and/or UVA/UVB irradiation. The cell viability values for each condition tested were compared with the value obtained from the control and plotted on a graph to highlight any differences between the various experimental conditions."}, "[5]": {"test_system": "primary cultures of human keratinocytes, NHKs", "experiment": "Cell viability after treatment with G01", "type": "cell-based", "details": "eight different concentrations, 48±2 h, three NHKs cultures", "experimental": "The study is performed on primary cultures of human keratinocytes, NHKs. The cells (three different cultures of keratinocytesNHKs) were plated in the specific culture medium and maintained in culture for 24±2 h to allow adhesion to the plate. The cells were treated with eight different concentrations of the compound of the invention […] under evaluation, diluted in the culture medium, for 48±2 h. The values of cell viability for each concentration tested, resulting from the spectrophotometric reading, were compared with the value obtained from the control."}, "NHKs cells [6]": {"test_system": "NHKs cells", "experiment": "Western Blot assessment (non-cleaved caspase 3) of UV induced apoptosis after pre-treatment with G01", "type": "cell-based, human", "details": "pre-treatment 90 μM 24±2 h; UVA 25 J/cm^2, UVB 80 mJ/cm^2; 24 h", "experimental": "The NHKs cells were plated in the specific culture medium and maintained in culture for 24±2 h to allow adhesion to the plate. Each experimental condition was plated in duplicate. The cells were treated for 24±2 h with the compound G01, in a concentration of 90 μM. Subsequently, the cells identified as +UVA, +G01/UVA, +UVB, and +G01/UVB were respectively exposed, in the irradiation medium, to doses of UVA of 25 J/cm^2 and UVB of 80 mJ/cm^2, while the control plates and those treated only with G01 were maintained in the dark and at room temperature for a period of time equal to the irradiation time. The irradiation medium was then replaced with the culture medium. Based on the preliminary results obtained on a broader time range, a post-treatment time of 24 h was selected, after which the plates were processed for Western Blot protein determination. The protein expression of non-cleaved caspase 3 in each condition tested (treatment with G01 and/or UVA/UVB irradiation) was compared with the expression in the control cells (Ctr)."}},
  "data": [
    {"smiles": "C/C=C/C=C/C=C/C(=O)O", "note": "[G01, 2,4,6-trans-octatrienoic acid]", "values": [
      {"measurement": "fraction of phosphorylated histone γH2AX", "setting": "NHKs cells [1]", "result": "reduced fraction"},
      {"measurement": "cell viability after UVA/UVB irradiation", "setting": "[2]", "result": "significant protective action"},
      {"measurement": "caspase 3 activation (protein expression of non-cleaved caspase 3)", "setting": "NHKs cells [3]", "result": "reduce caspase 3 activation"},
      {"measurement": "cell viability after UVA/UVB irradiation", "setting": "[4]", "result": "general protective effect of cell viability"},
      {"measurement": "cell viability (cellular toxicity) vs control", "setting": "[5]", "result": "absence of cellular toxicity"},
      {"measurement": "caspase 3 activation (protein expression of non-cleaved caspase 3)", "setting": "NHKs cells [6]", "result": "reduce caspase 3 activation"}
    ]}
  ]
}
